Source: patent US20240316150A1, “METHOD FOR PREVENTION OR TREATMENT OF DISEASES CAUSED BY PATHOGEN-[…] PATTERN” (priority 2021, published 2024)
Read-outs that look alike come from different tables or passages of the source. Ends that are not written are not given here.

What was measured:
monocytes [1] = type: cell-based
[2] = Sirius Red staining of liver, carbon tetrachloride plus LPS mice; type: in vivo, BALB/c mice; settings: LPS 0.3 mg/kg i.p. for 2 weeks on carbon tetrachloride injury
Description: In another experiment, adult male BALB/c mice were injected intraperitoneally with escalated dosage of carbon tetrachloride (CC14 from 1.0 to 2.5 ml/kg body weight) for 2 weeks. And then some mice were given lipopolysaccharides injection (LPS at 0.3 mg/kg, i.p.) for an additional 2 weeks. Under sustained injury conditions, some mice were supplemented with cholestyramine at 3% w/w in the chow for another 4 weeks. […] It is well known that hepatic injury induced activation of hepatic stellate cells (HSCs) mediate hepatic fibrosis.

[3] = system: α-defensin-5 (DEFA5) produced by Paneth cells; experiment: α-defensin-5 expression in ileum, carbon tetrachloride plus LPS mice; type: in vivo, BALB/c mice; settings: LPS 0.3 mg/kg i.p. for 2 weeks
Description: In one experiment, adult male BALB/c mice were intraperitoneally injected with escalated dosage of carbon tetrachloride (CC14 from 1.0 to 2.5 ml/kg body weight) for 2 weeks. Then, some mice were given lipopolysaccharides (LPS, 0.3 mg/kg, i.p.) for an additional 2 weeks. […] Lower DEFA5 levels worsen gut microbiota into dysbiosis state, and conversely, increased level of endotoxin may contribute to liver inflammation, leading to tissue injury and fibrogenesis.

Muc-2 = Muc-2 mRNA in ileum (RT-qPCR), carbon tetrachloride plus LPS mice; type: in vivo, BALB/c mice; settings: LPS 0.3 mg/kg i.p. for 2 weeks
Description: In one experiment, adult male BALB/c mice were intraperitoneally injected with escalated dosage of carbon tetrachloride (CC14 from 1.0 to 2.5 ml/kg body weight) for an additional 2 weeks. Then, some mice were given lipopolysaccharides (LPS, 0.3 mg/kg, i.p.) for an additional 2 weeks.

occludin = experiment: Occludin mRNA in ileum (RT-qPCR), carbon tetrachloride plus LPS mice; type: in vivo, BALB/c mice; settings: LPS 0.3 mg/kg i.p. for 2 weeks
Description: The tight junction proteins are essential components of intestinal epithelial cells and the innate immune system. In one experiment, adult male BALB/c mice were intraperitoneally injected with carbon tetrachloride (CC14, 1.0-2.5 ml/kg body weight) for 2 weeks. Then, some mice were given lipopolysaccharides (LPS, 0.3 mg/kg, i.p.) for an additional 2 weeks.

interleukin-1β (IL-1β) = experiment: IL-1β mRNA in liver, carbon tetrachloride plus LPS mice; type: in vivo, BALB/c mice; settings: LPS 0.3 mg/kg i.p. for 2 weeks on carbon tetrachloride injury
Description: In one experiment, adult male BALB/c mice were intraperitoneally injected with escalated levels of carbon tetrachloride (CC14, 1.0-2.5 ml/kg body weight) for 2 weeks. Then, some mice were given lipopolysaccharides (LPS, 0.3 mg/kg, i.p.) for an additional 2 weeks. Under the condition, some mice were supplemented with cholestyramine at 3 w/w. % in the chow for an additional 4 weeks. […] It is known that PAMPs activate many types of cells to produce interleukin-1 (IL-1), leading to fever, cytokine storms, and tissue damage. In this current disclosure, the cationic polymer in the oral administration can be used for sequestration of intestinal endotoxins, which consequently can alleviate drug-induced liver inflammation, a common mechanism of action for many types of liver injury and fibrogenesis.

monocytes [4] = type: cell-based; settings: Example 26, FIG. 22
type-1 collagen, α-1 = experiment: Type-1 collagen mRNA in liver, carbon tetrachloride plus LPS mice; type: in vivo, BALB/c mice; settings: LPS 0.3 mg/kg i.p. for 2 weeks on carbon tetrachloride injury
Description: In one experiment, adult male BALB/c mice were intraperitoneally injected with escalated dosage of carbon tetrachloride (CC14, 1.0-2.5 ml/kg body weight) for 2 weeks. Then, some adult male BALB/c mice were given additional lipopolysaccharides (LPS, 0.3 mg/kg, i.p.) for 2 weeks. At such condition, some mice were supplemented with cholestyramine at 3%w/w in the chow for 4 weeks. […] In normal liver tissues, HSCs are quiescent, featured as storing vitamin A and producing type-4 collagen and other loose extracellular matrix (ECM). The high expression of collagen and the formation of fibrotic septa are common in various liver diseases. […] Endotoxemia is common in various hepatic fibrosis and cirrhosis, caused by alcohol, drugs, viruses (such as HBV and HCV), and immune system disorders. Therefore, the current disclosure can be applied for treatment of various forms of liver fibrosis.

[5] = Intestinal permeability by FITC levels in bloodstream, carbon tetrachloride mice; type: in vivo, BALB/c mice; settings: 10 mg twice a week for 8 weeks, continued carbon tetrachloride
Description: In one experiment, adult male BALB/c mice were given intraperitoneal injections of carbon tetrachloride for 4 weeks; while continuing administration of carbon tetrachloride, some mice were given the synthetic human α-defensin-5 (DEFA5) (10 mg, twice a week) for 8 weeks. Finally, the mice were given fluorescein isothiocyanate (FITC). […] Vitamin D deficiency affects the expression of the defensins secreted by Paneth cells, resulting in small intestinal bacterial overgrowth (SIBO) and the translocation of PAMPs into the bloodstream, thereby causing chronic inflammation. Therefore, the defensins, as a therapeutic API, can treat various gastrointestinal disease and alleviate drug-induced liver fibrosis.

[6] = Sirius Red staining for liver fibrosis, carbon tetrachloride mice given DEFA5; type: in vivo, BALB/c mice; settings: oral 10 mg twice a week for 8 weeks, continued carbon tetrachloride
Excerpt: Paneth cells secret innate immune substances, such as antimicrobial peptides, to maintain intestinal homeostasis. The epithelial cells of the small intestine and the innate immune substances maintain the gastrointestinal barrier function, protect against the penetration of commensal and pathogenic bacteria, and safeguard intestinal epithelial cells. The antimicrobial peptides can suppress the small intestinal overgrowth of bacteria (SIBO), a common pathologic condition for many metabolic diseases. In one experiment, adult male BALB/c mice were given intraperitoneal injections of carbon tetrachloride for 4 weeks. While continuing administration of carbon tetrachloride, some mice were orally given synthetic human α-defensin-5 (10 mg, twice a week) for an additional 8 weeks (shown in FIG. 26A). […] The mechanism of action by the DEFA5 as API can be explained in part by inhibiting PAMPs, thereby reducing liver inflammation and damage, which in turn reduces the transdifferentiation of HSC and lowers liver fibrosis score.

[7] = Bloodstream endotoxin (LAL test), carbon tetrachloride mice given DEFA5; type: in vivo, BALB/c mice; settings: 10 mg twice a week for 8 weeks, continued carbon tetrachloride
Description: In one experiment, adult male BALB/c mice were given intraperitoneal injections of carbon tetrachloride for 4 weeks. While continuing administration of carbon tetrachloride, some mice were given the synthetic human α-defensin-5 (DEFA5) (10 mg, twice a week) for 8 weeks.

gut microbiota = experiment: Distribution of bacterial microbiota in feces, carbon tetrachloride mice given DEFA5; type: in vivo, BALB/c mice; settings: 10 mg twice a week for 8 weeks
Description: In one experiment, adult male BALB/c mice were given intraperitoneal injections of carbon tetrachloride for 4 weeks; while continuing administration of carbon tetrachloride, some mice were given the synthetic human α-defensin-5 (DEFA5) (10 mg, twice a week) for 8 weeks.

Substance	increase of mRNA expression of TNF-α (monocytes [1]; Example 25, FIG. 21)	increase of mRNA expression of TNF-α (monocytes [1]; Example 27, FIG. 23)	drug-induced cirrhosis, fibrotic histological analysis (Sirius Red) [2]	expression levels of α-defensin-5 (DEFA5) in ileum tissue [3]	mRNA expression of Muc-2 by Goblet cells in ileum tissue (Muc-2)	mRNA expression of occludin gene in ileum tissues (occludin)	drug-induced hepatic inflammation, mRNA expression of IL-1B in the liver (interleukin-1β (IL-1β))	increase of mRNA expression of IL-1B (monocytes [4])	drug-induced cirrhosis, type-I collagen mRNA (type-1 collagen, α-1)	intestinal permeability (FITC levels in bloodstream) [5]	liver fibrosis (Sirius Red) [6]	endotoxin translocation into the bloodstream [7]	balance of intestinal bacterial microbiota (gut microbiota; continued carbon tetrachloride)	abundance of Bacteroidetes (gut microbiota; feces)	abundance of Firmicutes (gut microbiota; feces)	abundance of gamma-Proteobacteria (gut microbiota; feces)
lipopolysaccharides [LPS]	about 8 times	about 10 times	exacerbate the drug-induced cirrhosis	suppressed the expression levels of α-defensin-5 (DEFA5)	reduced the mRNA expression of Muc-2	suppressed the mRNA expression of occludin gene	exacerbates the drug-induced hepatic inflammation	about 9 times	exacerbates the drug-induced cirrhosis							
α-defensin-5 (ATCYCRHGRCATRESLSGVCEISGRLYRLCC; not fully specified (bridges); also: three disulfide bonds) [DEFA5, ATCYCRHGRCATRESLSGVCEISGRLYRLCCR, three disulfide bonds; antimicrobial peptide of Paneth cells]										reduce intestinal permeability	reduced liver fibrosis caused by liver injury	reduced endotoxin translocation into the bloodstream	balanced the intestinal bacterial microbiota	increasing the abundance	reducing the abundance	reducing the abundance
